The target in experiment [1] is T1, Centromere-associated protein E (Homo sapiens, UniProt Q02224). Nature of the experiment: Inhibition of CENP-E (unknown origin) ATPase activity in presence 365 nm of light illumination.
Experiment [2] addresses T1, Centromere-associated protein E. The experiment in a line: Inhibition of CENP-E (unknown origin) ATPase activity in absence of light illumination.
In experiment [3] the test system is HeLa. The experiment in a line: Antiproliferative activity against human HeLa cells assessed as inhibition of cell proliferation. It is filed as functional, cell-based.
The target of experiment [4] is T1, Centromere-associated protein E. The experiment in a line: Inhibition of CENP-E in human HeLa cells assessed as misaligned chromosome at 1 uM incubated for 2 hrs by DAPI staining based assay. It is filed as cell-based.

Activity calls are given as the source filed them. No cut-off for these calls is given here. Where only a bound is given, the exact number is not on record here.

T1 sequence (Q02224 whole entry): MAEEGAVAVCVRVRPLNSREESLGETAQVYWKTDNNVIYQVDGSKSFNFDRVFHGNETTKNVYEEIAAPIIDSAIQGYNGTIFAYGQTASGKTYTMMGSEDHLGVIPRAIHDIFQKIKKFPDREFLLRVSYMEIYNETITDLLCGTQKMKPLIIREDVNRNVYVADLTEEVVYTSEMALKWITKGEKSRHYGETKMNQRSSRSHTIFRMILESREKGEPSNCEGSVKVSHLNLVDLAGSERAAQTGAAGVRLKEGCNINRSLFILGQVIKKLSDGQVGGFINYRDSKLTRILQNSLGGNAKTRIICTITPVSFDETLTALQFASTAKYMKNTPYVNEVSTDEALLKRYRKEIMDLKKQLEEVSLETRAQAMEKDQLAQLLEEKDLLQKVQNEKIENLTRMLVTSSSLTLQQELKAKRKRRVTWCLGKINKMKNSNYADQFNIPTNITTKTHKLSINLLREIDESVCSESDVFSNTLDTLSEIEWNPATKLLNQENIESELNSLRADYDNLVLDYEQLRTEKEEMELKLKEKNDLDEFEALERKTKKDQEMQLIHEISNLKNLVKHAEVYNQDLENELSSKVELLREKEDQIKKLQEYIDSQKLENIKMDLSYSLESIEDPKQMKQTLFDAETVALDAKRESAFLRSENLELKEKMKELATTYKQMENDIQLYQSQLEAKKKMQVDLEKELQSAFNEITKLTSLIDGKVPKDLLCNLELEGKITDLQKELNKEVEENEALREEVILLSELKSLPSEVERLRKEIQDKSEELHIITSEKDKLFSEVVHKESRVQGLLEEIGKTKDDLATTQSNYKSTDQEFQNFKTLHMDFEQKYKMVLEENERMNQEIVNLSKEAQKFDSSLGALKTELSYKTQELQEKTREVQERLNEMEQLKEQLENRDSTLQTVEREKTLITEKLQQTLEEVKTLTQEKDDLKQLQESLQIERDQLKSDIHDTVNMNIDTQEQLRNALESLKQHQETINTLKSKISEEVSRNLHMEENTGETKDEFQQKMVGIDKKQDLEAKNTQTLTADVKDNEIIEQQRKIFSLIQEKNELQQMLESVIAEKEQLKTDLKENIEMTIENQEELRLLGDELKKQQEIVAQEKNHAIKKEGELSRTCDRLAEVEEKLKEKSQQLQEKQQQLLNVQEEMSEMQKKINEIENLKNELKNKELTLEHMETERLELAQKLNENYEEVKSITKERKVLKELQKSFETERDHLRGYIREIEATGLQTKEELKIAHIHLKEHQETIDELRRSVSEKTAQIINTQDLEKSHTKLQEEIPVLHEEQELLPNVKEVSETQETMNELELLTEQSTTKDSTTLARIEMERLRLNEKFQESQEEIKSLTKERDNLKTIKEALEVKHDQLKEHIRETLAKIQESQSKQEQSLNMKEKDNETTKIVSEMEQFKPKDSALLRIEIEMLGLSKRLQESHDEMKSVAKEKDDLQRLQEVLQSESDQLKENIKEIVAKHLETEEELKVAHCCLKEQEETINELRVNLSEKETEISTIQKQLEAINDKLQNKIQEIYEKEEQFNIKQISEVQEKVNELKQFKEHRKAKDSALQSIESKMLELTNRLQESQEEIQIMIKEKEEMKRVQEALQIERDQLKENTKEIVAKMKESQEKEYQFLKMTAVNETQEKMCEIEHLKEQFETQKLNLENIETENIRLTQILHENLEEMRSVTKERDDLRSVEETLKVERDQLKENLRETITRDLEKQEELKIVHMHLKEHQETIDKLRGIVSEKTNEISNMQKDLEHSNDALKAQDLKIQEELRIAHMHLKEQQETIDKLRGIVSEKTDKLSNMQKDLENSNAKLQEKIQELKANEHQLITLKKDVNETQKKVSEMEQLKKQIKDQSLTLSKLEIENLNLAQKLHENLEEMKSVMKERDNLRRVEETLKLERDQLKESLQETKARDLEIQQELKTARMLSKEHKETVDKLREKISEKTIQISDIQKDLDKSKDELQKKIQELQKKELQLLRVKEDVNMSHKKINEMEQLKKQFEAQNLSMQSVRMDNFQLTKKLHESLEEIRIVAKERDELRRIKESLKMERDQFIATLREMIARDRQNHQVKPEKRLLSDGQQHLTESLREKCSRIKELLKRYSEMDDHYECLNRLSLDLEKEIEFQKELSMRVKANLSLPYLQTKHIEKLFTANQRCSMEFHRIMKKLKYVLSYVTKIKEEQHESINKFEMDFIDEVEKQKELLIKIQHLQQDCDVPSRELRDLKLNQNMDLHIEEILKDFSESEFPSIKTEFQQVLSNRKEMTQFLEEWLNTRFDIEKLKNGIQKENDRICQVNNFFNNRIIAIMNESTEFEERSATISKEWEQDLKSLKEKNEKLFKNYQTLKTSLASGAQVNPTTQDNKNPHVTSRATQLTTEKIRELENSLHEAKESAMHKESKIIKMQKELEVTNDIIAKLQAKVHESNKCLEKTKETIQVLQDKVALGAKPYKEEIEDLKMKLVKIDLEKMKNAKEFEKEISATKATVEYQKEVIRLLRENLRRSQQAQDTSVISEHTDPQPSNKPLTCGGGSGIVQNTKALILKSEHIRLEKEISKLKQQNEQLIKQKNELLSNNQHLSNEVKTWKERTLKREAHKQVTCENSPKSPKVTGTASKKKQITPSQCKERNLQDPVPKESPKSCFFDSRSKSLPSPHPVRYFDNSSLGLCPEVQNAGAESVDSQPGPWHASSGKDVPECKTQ

In the case of `CNC(=O)[C@H](Cc1ccc(/N=N/c2c(C)nn(-c3cccc4ccccc34)c2C)cc1)NC(=O)c1ccc(OC(C)C)c(Cl)c1`, the figures for the IC50 in experiment [1], in experiment [2] and in experiment [3] were above 501 nM, below 501 nM and 10000 nM, respectively.
For `CNC(=O)[C@H](Cc1ccc(/N=N/c2c(C)nn(Cc3ccccc3)c2C)cc1)NC(=O)c1ccc(OC(C)C)c(Cl)c1` the same measures were above 501 nM, 204 nM and above 10000 nM.
`CNC(=O)[C@H](Cc1ccc(/N=N/c2c(C)n[nH]c2C)cc1)NC(=O)c1ccc(OC(C)C)c(Cl)c1`: the 50% inhibitory concentration (IC50) (commonly the point on the concentration scale where inhibition reaches its midpoint) in experiment [1] was above 501 nM; in experiment [2], above 501 nM; in experiment [3], above 10000 nM.
As to `CNC(=O)[C@H](Cc1ccc(/N=N/c2c(C)nn(C3CCCCC3)c2C)cc1)NC(=O)c1ccc(OC(C)C)c(Cl)c1`, the IC50 is 97.7 nM in experiment [1] and 105 nM in experiment [2].
On to `CNC(=O)[C@H](Cc1ccc(/N=N/c2c(C)nn(C3=NCCN3)c2C)cc1)NC(=O)c1ccc(OC(C)C)c(Cl)c1`, for which the IC50 in experiment [1] is 417 nM; in experiment [2], 240 nM; in experiment [3], above 10000 nM.
On the same counts, the results for `CNC(=O)[C@H](Cc1ccc(/N=N/c2c(C)nn(C(=O)OC)c2C)cc1)NC(=O)c1ccc(OC(C)C)c(Cl)c1` are above 501 nM, 380 nM and above 10000 nM.
Take `CNC(=O)[C@H](Cc1ccc(/N=N/c2c(C)nn(C=O)c2C)cc1)NC(=O)c1ccc(OC(C)C)c(Cl)c1`: the results for the IC50 in experiment [1], in experiment [2] and in experiment [3] were 120 nM, 123 nM and 550 nM, respectively.
For `CNC(=O)[C@H](Cc1ccc(/N=N/c2c(C)nn(C(N)=S)c2C)cc1)NC(=O)c1ccc(OC(C)C)c(Cl)c1` the same measures were 51.3 nM, 145 nM and 10000 nM.
On the same counts, the results for `CNC(=O)[C@H](Cc1ccc(/N=N/c2c(C)nn(-c3ccccn3)c2C)cc1)NC(=O)c1ccc(OC(C)C)c(Cl)c1` are 162 nM, 93.3 nM and 10000 nM.
As to `CNC(=O)[C@H](Cc1ccc(/N=N/c2c(C)nn(C)c2C)cc1)NC(=O)c1ccc(OC(C)C)c(Cl)c1`, the IC50 in experiment [1] was 372 nM; in experiment [2] it was 15.8 nM; in experiment [3] it was 191 nM.
`CNC(=O)[C@H](Cc1ccc(/N=N/c2c(C)nn(C(=O)c3ccccc3)c2C)cc1)NC(=O)c1ccc(OC(C)C)c(Cl)c1`: the IC50 is 129 nM in experiment [1], 204 nM in experiment [2] and above 10000 nM in experiment [3].
On the same counts, the results for `CNC(=O)[C@H](Cc1ccc(/N=N/c2c(C)nn(CCO)c2C)cc1)NC(=O)c1ccc(OC(C)C)c(Cl)c1` are 195 nM, 12 nM and 200 nM.
As for `CNC(=O)[C@H](Cc1ccc(/N=N/c2c(C)noc2C)cc1)NC(=O)c1ccc(OC(C)C)c(Cl)c1`, the IC50 in experiment [1] is 166 nM; in experiment [2], 20 nM; in experiment [3] it was 380 nM.
For `CNC(=O)[C@H](Cc1ccc(/N=N/c2c(C)nn(-c3ccc(F)cc3F)c2C)cc1)NC(=O)c1ccc(OC(C)C)c(Cl)c1` the same measures were above 501 nM, 339 nM and 10000 nM.
For `CNC(=O)[C@H](Cc1ccc(/N=N/c2c(C)nn(C(C)C)c2C)cc1)NC(=O)c1ccc(OC(C)C)c(Cl)c1` the same measures were 158 nM, 123 nM and above 10000 nM.
With `CNC(=O)[C@H](Cc1ccc(/N=N/c2c(C)nn(C(N)=O)c2C)cc1)NC(=O)c1ccc(OC(C)C)c(Cl)c1`, the IC50 was 129 nM in experiment [1], 15.1 nM in experiment [2] and 457 nM in experiment [3].
With `CNC(=O)[C@H](Cc1ccc(/N=N/c2c(C)nn(C(=N)N)c2C)cc1)NC(=O)c1ccc(OC(C)C)c(Cl)c1`, the IC50 in experiment [1] is 151 nM; in experiment [2] it was 245 nM; in experiment [3], 10000 nM.
As for `CNC(=O)[C@H](Cc1ccc(NN=C(C(C)=O)C(C)=O)cc1)NC(=O)c1ccc(OC(C)C)c(Cl)c1`, in experiment [4], the inhibition result is “inactive”.
For the compound `CNC(=O)[C@H](Cc1ccc(/N=N/c2c(C)nn(C(C)=O)c2C)cc1)NC(=O)c1ccc(OC(C)C)c(Cl)c1`, the half-maximal inhibitory concentration (IC50) was 245 nM in experiment [1], 209 nM in experiment [2] and above 10000 nM in experiment [3].
With `CCCC(=O)n1nc(C)c(/N=N/c2ccc(C[C@H](NC(=O)c3ccc(OC(C)C)c(Cl)c3)C(=O)NC)cc2)c1C`, the figures for the IC50 in experiment [1], in experiment [2] and in experiment [3] were 83.2 nM, 33.9 nM and 447 nM, respectively.

Source of the values: ChEMBL document CHEMBL6127013, “A chemical platform for the efficient screening of arylazopyrazole-based photoswitchable CENP-E inhibitors using mild cyclization reactions” (Bioorg Med Chem Lett, 2024).
